Test results as given in PubChem BioAssay (NCI).
Where “and” joins values, the source holds several entries; their conditions need not be identical. Equal values may be shown once.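 Cells were grown in 96-well plates and exposed to each compound for 48 hours at five concentrations; endpoints were interpolated linearly between bracketing concentrations, or set to the highest concentration if not reached. Abbreviation: GI50, concentration required for 50% inhibition of growth. TGI: total growth inhibition.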

Tests used:
Assay in all cases: DTP human tumour cell line panel, 48 h
[1] = tested on: OVCAR-3 ovarian
[2] = tested on: PC-3 prostate
[3] = tested on: UACC-257 melanoma
[4] = tested on: SR leukemia
[5] = tested on: ACHN renal
[6] = tested on: NCI-H23 lung
[7] = tested on: NCI-H522 lung
[8] = tested on: A498 renal
[9] = tested on: SK-MEL-5 melanoma
[10] = tested on: MALME-3M melanoma

Row | Compound | TGI [1] [µM] | TGI [2] [µM] | TGI [3] [µM] | TGI [4] [µM] | TGI [5] | TGI [6] [µM] | TGI [7] | TGI [8] [µM] | TGI [9] [µM] | TGI [10] | GI50 [1] [µM] | GI50 [10] [µM] | GI50 [2] [µM] | GI50 [3] [µM] | GI50 [4] [µM] | GI50 [5] [µM] | GI50 [6] [µM] | GI50 [7] [µM] | GI50 [8] [µM] | GI50 [9] [µM]
1 | COc1cc2ccc(/C=C\[N+](=O)[O-])cc2cc1OC | 18.1 | 7.28 | > 22.9 | 5.28 | 3.2 µM | 6.98 | 3.4 µM | 29.1 | 17.5 | – | – | – | – | – | – | – | – | – | – | –
2 | O=C(O)C(/C=C/c1ccccc1)c1ccccc1 (stereo unspecified) | > 100 | > 100 | > 100 | > 100 | > 100 µM | > 100 | > 100 µM | > 100 | > 100 | > 100 µM | – | – | – | – | – | – | – | – | – | –
3 | CC(C)N(Cc1ccccc1)c1c(S)ssc1=S | > 100 | 9.44 | 6.2 | 7.89 | 12.4 µM | 96.3 | > 100 µM | 4.12 | 2.82 | 5.99 µM | 1.21 | 1.65 | 2.23 | 1.54 | 2.16 | 1.97 | 3.83 | 2.06 | 0.723 | 0.605
4 | COc1ccc(-c2cn(-c3cc(OC)c(OC)c(OC)c3)c(SCc3ccccc3)n2)cc1OC | > 100 | > 100 | > 100 | > 100 | > 100 µM | > 100 | > 100 µM | > 100 | > 100 | > 100 µM | > 100 | > 100 | > 100 | > 100 | 97.8 | > 100 | > 100 | > 100 | > 100 | 68.2
5 | CCC1C2Cc3ccc(O)cc3C1(CC)CCN2C (stereo unspecified) | > 100 | > 100 | > 100 | > 100 | > 100 µM | > 100 | > 100 µM | > 100 | > 100 | > 100 µM | – | – | – | – | – | – | – | – | – | –
6 | COc1cc(CSc2nc3ccc(C)cc3c(=O)n2-c2ccccc2)cc(OC)c1OC | > 27.3 | > 100 | > 100 | > 40.8 | > 100 µM | > 100 | > 25.3 µM | 9.15 | 19.9 | > 100 µM | 1.95 | 3.73 | 3.25 | 19.4 | 0.409 | 4.78 | 6.97 | 1.44 | 1.92 | 0.435
7 | O=C(CCCCCCCCC(=O)N/N=C\c1ccccc1O)N/N=C\c1ccccc1O | > 51.2 | > 58.6 | 4.07 | 12.9 | 20.1 µM | 21.9 | > 100 µM | 26.9 | 1.12 | 17.7 µM | 0.343 | 0.566 | 0.855 | 0.368 | 0.16 | 0.235 | 0.75 | 0.257 | 3.1 | 0.231
8 | Nc1c(C(=O)c2cccc(-c3ccncc3)c2)cnn1-c1ccc(F)cc1F | > 25 | > 25 | > 25 | > 18.5 | > 25 µM | > 25 | > 18.7 µM | > 25 | 8.49 | > 16.2 µM | 9.08 | 3.98 | 4.83 | 9.47 | 1.05 | 12 | 10.7 | 5.73 | 4.65 | 1.68
9 | COc1ccc(-c2c[nH]c(C(=O)O)c2-c2cc(OC)c(OC)c(OC)c2)cc1 | 8.05 | > 100 | > 100 | > 100 | > 100 µM | > 100 | > 100 µM | 6.67 | > 100 | > 100 µM | 2.74 | 4.37 | 4.46 | > 100 | 2.92 | 9.74 | 7.77 | 2.75 | 1.56 | 3.5
10 | O=C1Nc2ccccc2/C1=C/C(=O)c1coc2c1C(=O)c1ccccc1C2=O | > 100 | > 100 | > 100 | > 100 | > 100 µM | > 100 | > 100 µM | > 100 | > 100 | > 100 µM | > 100 | > 100 | > 100 | > 100 | 80.4 | > 100 | > 100 | > 100 | 45.7 | 30.4
11 | C#Cc1c(F)ccc2cc(O)cc(-c3ncc4c(N5CC6CCC(C5)N6)nc(OC[C@@]56CCCN5C[C@H](F)C6)nc4c3F)c12 | 25.9 | 33.8 | 35.1 | > 100 | > 53.8 µM | 15.1 | 31.3 µM | 34.2 | 28.2 | 29.3 µM | 12.7 | 15.5 | 14.8 | 18.1 | 6.53 | > 39.4 | 1.94 | 14.5 | 15.7 | 14.9
12 | COc1ccc2c(c1)c(=O)oc1cc(OC/C(C)=N\O)ccc12 | > 100 | > 100 | > 100 | – | > 100 µM | > 100 | > 100 µM | > 100 | > 100 | > 100 µM | > 100 | > 100 | > 100 | > 100 | – | 29.9 | > 100 | 44.5 | > 100 | > 100
13 | Cc1cc2c(cc1C)N(C(=O)CCl)CC(=O)N2 | 3.33 | 18.9 | 18.5 | 7.04 | 3.24 µM | 16.4 | 1.97 µM | 18.2 | 13.6 | 3.81 µM | 1.89 | 1.81 | 4.48 | 4.83 | 2.65 | 1.82 | 3.41 | 0.568 | 3.5 | 3.48
14 | CC1CCC(NC(=O)N(CCCl)N=O)CC1 (stereo unspecified) | 70.4 | 96.6 | 89.8 | – | 91.7 µM and 103 µM | 129 | 31.6 µM and 90 µM | 124 | > 87.5 | 51.5 µM and 98.1 µM | – | 26 | – | 33.5 | 0.832 | 31.6 | 61.8 | 14.1 | – | 29.8
15 | COc1cc([N+](=O)[O-])c(OC)cc1-c1nc2sc(Cl)cn2c1/C(N)=N/C(=N)N | 3.45 | 13 | 22.6 | – | > 100 µM | 10.8 | 5.49 µM | 48.6 | 29.5 | 26.6 µM | 1.72 | 5.71 | 3.22 | 8 | – | > 56.9 | 3.43 | 2.35 | 20.7 | 4.52
16 | COc1cc([C@@H]2OC[C@@H]3C(c4cc(OC)c5c(c4)OCO5)OC[C@@H]32)cc(OC)c1OC (stereo partly specified) | > 100 | > 100 | > 100 | > 100 | > 100 µM | > 100 | > 100 µM | > 100 | > 100 | – | – | – | – | – | – | – | – | – | – | –
17 | CC(=O)OCC1OC(n2cnc(C(N)=S)c2N)C(OC(C)=O)C1OC(C)=O (stereo unspecified) | > 100 | > 100 | > 100 | > 100 | > 100 µM | > 100 | > 100 µM | – | > 100 | > 100 µM | – | – | – | – | – | – | – | – | – | –
18 | COc1ccc(/C(COc2ccc3c(=O)cc(-c4ccccc4)oc3c2)=N\O)cc1 | 38.7 | > 36.1 | > 35.5 | > 32 | 19 µM | > 50 | 26.6 µM | – | > 29.4 | – | 10.3 | – | 12.7 | 19.6 | 6.61 | 9.5 | 29.5 | 7.32 | – | 9.61
19 | CC/C=C1/C(=O)C=C[C@@H]1C/C=C\CCCC(=O)OC | 10.2 | 8.56 | 7.1 | – | 4.57 µM | 5.86 | 3.57 µM | – | 3.2 | 9.06 µM | 3.05 | 2.92 | 3.02 | 2.51 | 0.563 | 2.27 | 2.17 | 1.56 | – | 1.77
20 | COC(=O)c1nc(-c2ccccc2)oc1S(=O)(=O)Cc1ccccc1 | 3.52 | 29.4 | 27.2 | 16.5 | 3.15 µM | 34.4 | 3.29 µM | 29.7 | – | 3.44 µM | 1.94 | 1.73 | 15 | 13.7 | 3.03 | 1.77 | 16.2 | 1.52 | 15.9 | –
21 | C=C1C(=O)O[C@H]2[C@H]1CC/C(COC(=O)NCc1ccc(Cn3c(=O)sn(CCCl)c3=O)cc1)=C\CC[C@@]1(C)O[C@@H]21 | 2.88 | 21 | 4.98 | – | 2.87 µM | 5.2 | 2.98 µM | 23.8 | 3.24 | 3.46 µM | 1.53 | 1.72 | 8.09 | 1.85 | – | 1.54 | 2.18 | 1.38 | 11.5 | 1.7
22 | Fc1ccc2c(c1)C1=NN(c3ccccc3)C(F)C1CO2 (stereo unspecified) | 19.1 | > 50 | 26.5 | > 50 | 22.7 µM | 26.7 | > 50 µM | 21 | 16.2 | – | 6.14 | – | 11.1 | 9.7 | 25.7 | 8.94 | 11.2 | > 50 | 11.4 | 8.48
23 | Cc1ccc(S(=O)(=O)N/N=C/c2c(O)ccc3ccccc23)cc1 | 44.2 | 58.6 | > 100 | – | > 100 µM | 83.2 | 45.6 µM | 44.2 | > 100 | 77.4 µM | – | – | – | – | – | – | – | – | – | –
24 | C=C(C)C(=O)O[C@H]1CC(=C)[C@@H]2C[C@H](O)[C@](O)(CCl)[C@@H]2[C@H]2OC(=O)C(=C)[C@@H]21 | 4.38 | 10.4 | 13.5 | – | 3.31 µM | 25.7 | 4 µM | 26.7 | 23.4 | 3.6 µM | 1.81 | 1.86 | 3.03 | 3.65 | – | 1.82 | 11.6 | 1.91 | 12.8 | 8.66
25 | C[C@H]1[C@H](C)CC[C@]2(CO)CC[C@]3(C)C(=CC[C@@H]4[C@@]5(C)CCCNC(C)(C)[C@@H]5CC[C@]43C)[C@H]12 | 3.42 | 2.96 | 3.7 | – | 3.06 µM | 3.26 | 3.32 µM | 3.29 | 3.09 | 3.44 µM | 1.83 | 1.68 | 1.55 | 1.95 | – | 1.69 | 1.65 | 1.71 | 1.63 | 1.7
26 | COc1cnc2c(c1)C(=O)c1c-2n(CCCn2ccnc2)c(=O)c2cc(F)ccc12 | 0.382 | > 100 | 0.493 | 0.76 | – | 0.565 | 0.169 µM | 0.218 | 0.0717 | 0.619 µM | 0.0437 | 0.193 | 0.0576 | 0.102 | < 0.01 | – | 0.0171 | < 0.01 | 0.0508 | 0.0169
27 | N#CC(NC12CC3CC(CC(C3)C1)C2)c1ccc2c(c1)OCO2 (stereo unspecified) | > 100 | > 100 | > 100 | > 100 | > 100 µM | > 100 | > 100 µM | – | > 100 | > 100 µM | – | – | – | – | – | – | – | – | – | –
28 | COc1ccc(-c2nc(-c3nc4ccc(OC)cc4[nH]3)c3ccccn23)cc1 | 62.1 | 32.2 | 26.1 | – | 36.6 µM | > 100 | 11.2 µM | > 100 | 4.41 | 70.5 µM | 4.97 | 13.3 | 3.01 | 4.39 | – | 3.57 | 12.7 | 2.89 | 4.28 | 1.6
